The numbers were not newly measured in US20020006953A1, “MODIFICATION OF CHOLESTEROL CONCENTRATIONS WITH CITUS PHYTOCHEMICALS” (priority 1999, published 2002), which cites them from elsewhere.

The structures appear in SMILES notation.

The conditions of data set [1]: 10% hesperidin diet.

Take `COc1ccc([C@@H]2CC(=O)c3c(O)cc(O)cc3O2)cc1O` [hesperetin]: the “net secretion of apo B” value in the data set on HepG2 cells is recorded as “reduced”.

Take `COc1ccc([C@@H]2CC(=O)c3c(O)cc(O[C@@H]4O[C@H](CO[C@@H]5O[C@@H](C)[C@H](O)[C@@H](O)[C@H]5O)[C@@H](O)[C@H](O)[C@H]4O)cc3O2)cc1O` [hesperidin]: in data set [1], the “plasma concentration of triacylglycerols” value is given as “significantly reduced”. Moreover, the activity of lipase result in the data set on lipase is given as “inhibit”. On to `O=C1C[C@@H](c2ccc(O)cc2)Oc2cc(O)cc(O)c21` [naringinin], for which the “net secretion of apo B” value in the data set with HepG2 cells is listed as “reduced”.
